Reference: ChEMBL document CHEMBL1146248, “Cytotoxic small molecule dimers and their inhibitory activity against human breast cancer cells” (Bioorg Med Chem Lett, 2007)
pIC50: −log10 of the molar value.

Experiments:
[1] = system: SK-BR-3; assay: Antiproliferative activity against human estrogen receptor negative SKBr3 cells overexpressing Her2 after 72 hrs; type: functional, cell-based; conditions: SK-BR-3, 72 h
[2] = system: MCF7; assay: Antiproliferative activity against human estrogen receptor positive MCF7 cells after 72 hrs; type: functional, cell-based; conditions: MCF7, 72 h

Row | Structure (SMILES) | pIC50 [1] | pIC50 [2]
1 | O=C(Nc1cccc(Cl)c1)c1ccc(C(=O)Nc2cccc(Cl)c2)nc1 | 4.55 | 4.56
2 | Cc1c(O)ccc2cc(NC(=O)c3ccnc(C(=O)Nc4cc5ccc(O)c(C)c5oc4=O)c3)c(=O)oc12 | < 4.00 | < 4.00
3 | Cc1cc(C(=O)Nc2cc(Cl)cc(Cl)c2)c(C)cc1C(=O)Nc1cc(Cl)cc(Cl)c1 | < 4.00 | < 4.00
4 | O=C(Nc1ccccc1F)c1cccc(C(=O)Nc2ccccc2F)c1 | < 4.00 | < 4.00
5 | O=C(NCCc1ccc2c(c1)OCO2)c1ccc(C(=O)NCCc2ccc3c(c2)OCO3)nc1 | < 4.00 | < 4.00
6 | O=C(Nc1cc(F)ccc1F)c1cccc(C(=O)Nc2cc(F)ccc2F)n1 | < 4.00 | < 4.00
7 | O=C(Nc1cccc(Cl)c1)c1cccc(C(=O)Nc2cccc(Cl)c2)c1 | < 4.00 | 4.25
8 | N#Cc1ccc(NC(=O)c2cccc(C(=O)Nc3ccc(C#N)cc3)c2)cc1 | < 4.00 | < 4.00
9 | O=C(Nc1ccc2c(c1)OCCO2)c1ccc(C(=O)Nc2ccc3c(c2)OCCO3)c([N+](=O)[O-])c1 | < 4.00 | < 4.00
10 | Cc1cc(C(=O)Nc2ccc3c(c2)OCCO3)c(C)cc1C(=O)Nc1ccc2c(c1)OCCO2 | < 4.00 | < 4.00
11 | Cc1cc(C)cc(NC(=O)c2ccnc(C(=O)Nc3cc(C)cc(C)c3)c2)c1 | < 4.00 | < 4.00
12 | COc1cc(NC(=O)c2ccnc(C(=O)Nc3cc(OC)cc(OC)c3)c2)cc(OC)c1 | < 4.00 | < 4.00
13 | O=C(Nc1ccc(F)c(F)c1)c1cccc(C(=O)Nc2ccc(F)c(F)c2)n1 | < 4.00 | < 4.00
14 | O=C(NC1CCCCC1)c1ccc(C(=O)NC2CCCCC2)nc1 | < 4.00 | < 4.00
15 | O=C(Nc1ccc2ccccc2c1)c1cccc(C(=O)Nc2ccc3ccccc3c2)c1 | 4.82 | 5.34
16 | O=C(Nc1cc(Cl)cc(Cl)c1)c1cccc(C(=O)Nc2cc(Cl)cc(Cl)c2)c1 | 5.35 | 5.57
17 | O=C(Nc1cc(Cl)cc(Cl)c1)c1ccc(C(=O)Nc2cc(Cl)cc(Cl)c2)nc1 | 5.64 | 5.39
18 | O=C(Nc1cc(Cl)cc(Cl)c1)c1cc(Cl)c(C(=O)Nc2cc(Cl)cc(Cl)c2)cc1Cl | < 4.00 | < 4.00
19 | O=C(Nc1ccc2c(c1)OCCO2)c1ccc(C(=O)Nc2ccc3c(c2)OCCO3)c2ccccc12 | < 4.00 | < 4.00
20 | O=C(Nc1ccc(F)c(F)c1)c1ccc(C(=O)Nc2ccc(F)c(F)c2)nc1 | < 4.00 | < 4.00
21 | O=C(Nc1ccccc1F)c1ccnc(C(=O)Nc2ccccc2F)c1 | 4.06 | 4.39
22 | O=C(Nc1cc(F)cc(F)c1)c1ccnc(C(=O)Nc2cc(F)cc(F)c2)c1 | < 4.00 | 4.83

Row | Structure (SMILES) | pIC50 [1] | pIC50 [2]
23 | O=C(CCCCCCC(=O)Nc1ccc2c(c1)OCCO2)Nc1ccc2c(c1)OCCO2 | < 4.00 | < 4.00
24 | O=C(Nc1ccc2c(c1)OCO2)c1ccc(C(=O)Nc2ccc3c(c2)OCO3)nc1 | < 4.00 | < 4.00
25 | Cc1cc(C)cc(NC(=O)c2ccc(C(=O)Nc3cc(C)cc(C)c3)nc2)c1 | 3.98 | 4.79
26 | O=C(Nc1ccc(F)c(F)c1)c1cccc(C(=O)Nc2ccc(F)c(F)c2)c1 | < 4.00 | –
27 | O=C(Nc1ccccc1O)c1ccc(C(=O)Nc2ccccc2O)nc1 | < 4.00 | < 4.00
28 | O=C(Nc1ccc(O)cc1)c1ccc(C(=O)Nc2ccc(O)cc2)nc1 | < 4.00 | < 4.00
29 | O=C(Nc1cc(F)cc(F)c1)c1cccc(C(=O)Nc2cc(F)cc(F)c2)n1 | < 4.00 | < 4.00
30 | O=C(Nc1ccc2c(c1)OCCOCCOCCOCCO2)c1ccc(C(=O)Nc2ccc3c(c2)OCCOCCOCCOCCO3)nc1 | 5.35 | 5.14
31 | O=C(Nc1ccc2c(c1)OCCO2)c1ccc(C(=O)Nc2ccc3c(c2)OCCO3)cc1 | < 4.00 | < 4.00
32 | Cc1cc(C)cc(NC(=O)c2cccc(C(=O)Nc3cc(C)cc(C)c3)n2)c1 | < 4.00 | < 4.00
33 | O=C(Nc1ccc2c(c1)OCCO2)c1cc(Cl)c(C(=O)Nc2ccc3c(c2)OCCO3)cc1Cl | < 4.00 | < 4.00
34 | O=C(Nc1cccc(Cl)c1)c1ccnc(C(=O)Nc2cccc(Cl)c2)c1 | 5.05 | 5.62
35 | O=C(Nc1ccccc1F)c1ccc(C(=O)Nc2ccccc2F)nc1 | < 4.00 | < 4.00
36 | O=C(Nc1cc(F)ccc1F)c1cccc(C(=O)Nc2cc(F)ccc2F)c1 | < 4.00 | < 4.00
37 | O=C(Nc1ccc2ccccc2c1)c1ccc(C(=O)Nc2ccc3ccccc3c2)nc1 | < 4.00 | < 4.00
38 | O=C(Nc1cc(Cl)cc(Cl)c1)c1ccnc(C(=O)Nc2cc(Cl)cc(Cl)c2)c1 | 4.98 | 5.38
39 | O=C(Nc1ccc2c(c1)OCCO2)c1ccnc(C(=O)Nc2ccc3c(c2)OCCO3)c1 | < 4.00 | < 4.00
40 | Cc1c(O)ccc2cc(NC(=O)c3cccc(C(=O)Nc4cc5ccc(O)c(C)c5oc4=O)c3)c(=O)oc12 | < 4.00 | < 4.00
41 | O=C(Nc1ccc(F)c(F)c1)c1ccnc(C(=O)Nc2ccc(F)c(F)c2)c1 | < 4.00 | < 4.00
42 | Cc1c(O)ccc2cc(NC(=O)c3cccc(C(=O)Nc4cc5ccc(O)c(C)c5oc4=O)n3)c(=O)oc12 | < 4.00 | < 4.00
43 | O=C(Nc1cc(F)ccc1F)c1ccc(C(=O)Nc2cc(F)ccc2F)nc1 | < 4.00 | < 4.00
44 | COc1cc(NC(=O)c2cccc(C(=O)Nc3cc(OC)cc(OC)c3)c2)cc(OC)c1 | < 4.00 | < 4.00

Row | Structure (SMILES) | pIC50 [1] | pIC50 [2]
45 | O=C(Nc1cc(F)ccc1F)c1ccnc(C(=O)Nc2cc(F)ccc2F)c1 | < 4.00 | < 4.00
46 | Cc1c(O)ccc2cc(NC(=O)c3ccc(C(=O)Nc4cc5ccc(O)c(C)c5oc4=O)nc3)c(=O)oc12 | < 4.00 | < 4.00
47 | COc1cc(NC(=O)c2cccc(C(=O)Nc3cc(OC)cc(OC)c3)n2)cc(OC)c1 | < 4.00 | 4.28
48 | O=C(Nc1cc(Cl)cc(Cl)c1)c1cccc(C(=O)Nc2cc(Cl)cc(Cl)c2)n1 | 4.79 | 4.99
49 | O=C(Nc1ccc2ccccc2c1)c1ccnc(C(=O)Nc2ccc3ccccc3c2)c1 | < 4.00 | 4.09
50 | O=C(Nc1cc(F)cc(F)c1)c1ccc(C(=O)Nc2cc(F)cc(F)c2)nc1 | < 4.00 | < 4.00
51 | CO[C@H]1[C@H](OC(=O)c2ccc(C)[nH]2)[C@H](O)[C@@H](Oc2ccc3c(O)c(NC(=O)c4c[nH]c(C(=O)Nc5c(O)c6ccc(O[C@H]7OC(C)(C)[C@@H](OC)[C@H](OC(=O)c8ccc(C)[nH]8)[C@@H]7O)c(C)c6oc5=O)c4C)c(=O)oc3c2C)OC1(C)C [COUMERMYCIN A1] | 5.49 | 5.17
52 | Cc1cc(C)cc(NC(=O)c2cccc(C(=O)Nc3cc(C)cc(C)c3)c2)c1 | 4.91 | 5.68
53 | O=C(Nc1ccc2c(c1)OCCO2)c1cnc(C(=O)Nc2ccc3c(c2)OCCO3)cn1 | < 4.00 | < 4.00
54 | O=C(Nc1ccc2c(c1)OCCOCCOCCOCCO2)c1cccc(C(=O)Nc2ccc3c(c2)OCCOCCOCCOCCO3)c1 | < 4.00 | < 4.00
55 | O=C(Nc1cc(F)cc(F)c1)c1cccc(C(=O)Nc2cc(F)cc(F)c2)c1 | < 4.00 | < 4.00
56 | O=C(Nc1cc(Cl)cc(Cl)c1)c1ccc(C(=O)Nc2cc(Cl)cc(Cl)c2)cc1 | < 4.00 | < 4.00
57 | O=C(Nc1ccc2c(c1)OCCO2)c1cccc(C(=O)Nc2ccc3c(c2)OCCO3)c1 | < 4.00 | < 4.00
58 | O=C(CCCCCCC(=O)Nc1cc(Cl)cc(Cl)c1)Nc1cc(Cl)cc(Cl)c1 | < 4.00 | < 4.00
59 | O=C(Nc1ccc(Cl)cc1O)c1ccc(C(=O)Nc2ccc(Cl)cc2O)nc1 | < 4.00 | < 4.00
60 | O=C(Nc1ccc2c(c1)OCCO2)c1ccc(C(=O)Nc2ccc3c(c2)OCCO3)nc1 | < 4.00 | < 4.00
61 | O=C(Nc1ccc2c(c1)OCCO2)c1cccc(C(=O)Nc2ccc3c(c2)OCCO3)n1 | < 4.00 | 4.56
62 | O=C(NCc1ccc2c(c1)OCO2)c1ccc(C(=O)NCc2ccc3c(c2)OCO3)nc1 | < 4.00 | < 4.00
63 | COc1cc(NC(=O)c2ccc(C(=O)Nc3cc(OC)cc(OC)c3)nc2)cc(OC)c1 | 4.46 | 4.64
64 | O=C(Nc1cc(Cl)cc(Cl)c1)c1ccc(C(=O)Nc2cc(Cl)cc(Cl)c2)c2ccccc12 | < 4.00 | < 4.00
65 | N#Cc1ccc(NC(=O)c2ccnc(C(=O)Nc3ccc(C#N)cc3)c2)cc1 | < 4.00 | < 4.00
